In ChEMBL document CHEMBL4229426, “Synthesis, antitumor activity evaluation and mechanistic study of novel hederacolchiside A1 derivatives bearing an aryl triazole moiety” (Bioorg Med Chem, 2018):
Values belong to the compound of their own block, whether it stands above or below them. Calls of active or inactive are those of the source. No cut-off for these calls is given here.

Experiments:
[1] = tested on: HepG2; assay: Antiproliferative activity against human HepG2 cells after 48 hrs by MTT assay; format: functional, cell-based; details: HepG2, 48 h
[2] = tested on: HepG2; assay: Downregulation of Bcl2 protein expression in human HepG2 cells assessed as ratio of Bcl2 to GAPDH expression level at 1 uM after 48 hrs by Western blot analysis (reference value: 0.97); format: functional
[3] = tested on: HepG2; assay: Induction of apoptosis in human HepG2 cells assessed as early apoptotic cells at 2 uM after 48 hrs by Annexin V-FITC/propidium iodide staining based flow cytometry (reference value: 4.42%); format: functional
[4] = tested on: HepG2; assay: Upregulation of caspase-9 protein expression in human HepG2 cells at 2 uM after 48 hrs by Western blot analysis; format: functional, cell-based
[5] = tested on: PC-3; assay: Antiproliferative activity against human PC3 cells after 48 hrs by MTT assay; format: functional, cell-based; details: PC-3, 48 h
[6] = tested on: HepG2; assay: Cell cycle arrest in human HepG2 cells assessed as accumulation at S-phase at 2 uM after 48 hrs by propidium iodide staining based flow cytometry (reference value: 26.79%); format: functional
[7] = tested on: HepG2; assay: Upregulation of caspase-9 protein expression in human HepG2 cells assessed as ratio of caspase-9 to GAPDH expression level at 1 uM after 48 hrs by Western blot analysis (reference value: 0.17); format: functional
[8] = tested on: HepG2; assay: Induction of apoptosis in human HepG2 cells assessed as live cells at 2 uM after 48 hrs by Annexin V-FITC/propidium iodide staining based flow cytometry (reference value: 95.5%); format: functional
[9] = tested on: HepG2; assay: Upregulation of caspase-3 protein expression in human HepG2 cells assessed as ratio of caspase-3 to GAPDH expression level at 2 uM after 48 hrs by Western blot analysis (reference value: 0.25); format: functional
[10] = tested on: HepG2; assay: Cell cycle arrest in human HepG2 cells assessed as accumulation at S-phase at 0.5 uM after 48 hrs by propidium iodide staining based flow cytometry (reference value: 26.79%); format: functional
[11] = tested on: HepG2; assay: Cell cycle arrest in human HepG2 cells assessed as accumulation at G1-phase at 2 uM after 48 hrs by propidium iodide staining based flow cytometry (reference value: 40.6%); format: functional
[12] = tested on: A549; assay: Antiproliferative activity against human A549 cells after 48 hrs by MTT assay; format: functional, cell-based; details: A549, 48 h
[13] = tested on: HepG2; assay: Cell cycle arrest in human HepG2 cells assessed as accumulation at S-phase at 1 uM after 48 hrs by propidium iodide staining based flow cytometry (reference value: 26.79%); format: functional
[14] = tested on: HepG2; assay: Induction of mitochondrial membrane depolarization in human HepG2 cells after 48 hrs by JC-1 staining based flow cytometry; format: functional, cell-based
[15] = tested on: HepG2; assay: Downregulation of Bcl2 protein expression in human HepG2 cells assessed as ratio of Bcl2 to GAPDH expression level at 2 uM after 48 hrs by Western blot analysis (reference value: 0.97); format: functional
[16] = tested on: HepG2; assay: Induction of apoptosis in human HepG2 cells assessed as live cells at 1 uM after 48 hrs by Annexin V-FITC/propidium iodide staining based flow cytometry (reference value: 95.5%); format: functional
[17] = tested on: HepG2; assay: Cell cycle arrest in human HepG2 cells assessed as accumulation at G1-phase at 0.5 uM after 48 hrs by propidium iodide staining based flow cytometry (reference value: 40.6%); format: functional
[18] = tested on: HepG2; assay: Cell cycle arrest in human HepG2 cells assessed as accumulation at G2-phase at 0.5 uM after 48 hrs by propidium iodide staining based flow cytometry (reference value: 32.61%); format: functional
[19] = tested on: HepG2; assay: Induction of apoptosis in human HepG2 cells assessed as late apoptotic cells at 2 uM after 48 hrs by Annexin V-FITC/propidium iodide staining based flow cytometry (reference value: 0.02%); format: functional
[20] = tested on: HepG2; assay: Induction of apoptosis in human HepG2 cells assessed as late apoptotic cells at 1 uM after 48 hrs by Annexin V-FITC/propidium iodide staining based flow cytometry (reference value: 0.02%); format: functional
[21] = tested on: HepG2; assay: Induction of apoptosis in human HepG2 cells assessed as early apoptotic cells at 1 uM after 48 hrs by Annexin V-FITC/propidium iodide staining based flow cytometry (reference value: 4.42%); format: functional
[22] = tested on: HepG2; assay: Induction of mitochondrial membrane depolarization in human HepG2 cells at 2 uM after 48 hrs by JC-1 staining based flow cytometry (reference value: 1.3%); format: functional
[23] = tested on: HepG2; assay: Cell cycle arrest in human HepG2 cells assessed as accumulation at G2-phase at 2 uM after 48 hrs by propidium iodide staining based flow cytometry (reference value: 32.61%); format: functional
[24] = tested on: HepG2; assay: Downregulation of Bcl2 protein expression in human HepG2 cells assessed as ratio of Bcl2 to GAPDH expression level at 0.5 uM after 48 hrs by Western blot analysis (reference value: 0.97); format: functional
[25] = tested on: HepG2; assay: Induction of apoptosis in human HepG2 cells assessed as necrotic cells at 2 uM after 48 hrs by Annexin V-FITC/propidium iodide staining based flow cytometry (reference value: 0.06%); format: functional
[26] = tested on: HepG2; assay: Induction of mitochondrial membrane depolarization in human HepG2 cells at 1 uM after 48 hrs by JC-1 staining based flow cytometry (reference value: 1.3%); format: functional
[27] = tested on: HepG2; assay: Cell cycle arrest in human HepG2 cells assessed as accumulation at G1-phase at 1 uM after 48 hrs by propidium iodide staining based flow cytometry (reference value: 40.6%); format: functional
[28] = tested on: U-937; assay: Antiproliferative activity against human U937 cells after 48 hrs by MTT assay; format: functional, cell-based; details: U-937, 48 h
[29] = tested on: HepG2; assay: Cell cycle arrest in human HepG2 cells after 48 hrs by propidium iodide staining based flow cytometry; format: functional
[30] = tested on: HepG2; assay: Induction of apoptosis in human HepG2 cells assessed as necrotic cells at 1 uM after 48 hrs by Annexin V-FITC/propidium iodide staining based flow cytometry (reference value: 0.06%); format: functional
[31] = tested on: HepG2; assay: Induction of apoptosis in human HepG2 cells assessed as late apoptotic cells at 0.5 uM after 48 hrs by Annexin V-FITC/propidium iodide staining based flow cytometry (reference value: 0.02%); format: functional
[32] = tested on: HepG2; assay: Upregulation of cytochrome-c protein expression in human HepG2 cells after 48 hrs by Western blot analysis; format: functional, cell-based
[33] = tested on: HepG2; assay: Upregulation of cytochrome-c protein expression in human HepG2 cells assessed as ratio of cytochrome-c to GAPDH expression level at 0.5 to 2 uM after 48 hrs by Western blot analysis (reference value: 0.05); format: functional
[34] = tested on: HepG2; assay: Induction of apoptosis in human HepG2 cells assessed as necrotic cells at 0.5 uM after 48 hrs by Annexin V-FITC/propidium iodide staining based flow cytometry (reference value: 0.06%); format: functional
[35] = tested on: HL-60; assay: Antiproliferative activity against human HL60 cells after 48 hrs by MTT assay; format: functional, cell-based; details: HL-60, 48 h
[36] = tested on: HT-29; assay: Antiproliferative activity against human HT-29 cells after 48 hrs by MTT assay; format: functional, cell-based; details: HT-29, 48 h
[37] = tested on: HepG2; assay: Induction of apoptosis in human HepG2 cells assessed as early apoptotic cells at 0.5 uM after 48 hrs by Annexin V-FITC/propidium iodide staining based flow cytometry (reference value: 4.42%); format: functional
[38] = tested on: HepG2; assay: Induction of apoptosis in human HepG2 cells assessed as live cells at 0.5 uM after 48 hrs by Annexin V-FITC/propidium iodide staining based flow cytometry (reference value: 95.5%); format: functional
[39] = tested on: HepG2; assay: Induction of mitochondrial membrane depolarization in human HepG2 cells at 0.5 uM after 48 hrs by JC-1 staining based flow cytometry (reference value: 1.3%); format: functional
[40] = tested on: HepG2; assay: Cell cycle arrest in human HepG2 cells assessed as accumulation at G2-phase at 1 uM after 48 hrs by propidium iodide staining based flow cytometry (reference value: 32.61%); format: functional

IC50 [1]: 0.54 µM
IC50 [5]: 0.54 µM
IC50 [12]: 2.66 µM
IC50 [28]: 0.73 µM
IC50 [35]: 0.81 µM
IC50 [36]: 0.93 µM
SMILES: Cc1ccc(-n2cc(CNC(=O)[C@]34CCC(C)(C)C[C@H]3C3=CC[C@@H]5[C@@]6(C)CC[C@H](O[C@@H]7OC[C@H](O[C@@H]8O[C@H](CO)[C@@H](O)[C@H](O)[C@H]8O)[C@H](O)[C@H]7O[C@@H]7O[C@@H](C)[C@H](O)[C@@H](O)[C@H]7O)C(C)(C)[C@@H]6CC[C@@]5(C)[C@]3(C)CC4)nn2)cc1
Ratio [2]: 0.47
Activity [3]: 21.07%
Activity [4]: Active
Activity [6]: 39.32%
Ratio [7]: 0.45
Activity [8]: 41.56%
Ratio [9]: 0.63
Activity [10]: 33.29%
Activity [11]: 49.35%
Activity [13]: 35.92%
Activity [14]: Dose-dependent effect
Ratio [15]: 0.19
Activity [16]: 53.1%
Activity [17]: 48.7%
Activity [18]: 18.01%
Activity [19]: 35.77%
Activity [20]: 21.58%
Activity [21]: 24.76%
Activity [22]: 54.12%
Activity [23]: 11.33%
Ratio [24]: 0.64
Activity [25]: 1.51%
Activity [26]: 33.51%
Activity [27]: 48.4%
Activity [29]: Dose-dependent effect
Activity [30]: 0.56%
Activity [31]: 6.89%
Activity [32]: Dose-dependent effect
Ratio [33]: 0.4
Activity [34]: 0.3%
Activity [37]: 17.87%
Activity [38]: 74.94%
Activity [39]: 15.98%
Activity [40]: 15.68%

IC50 [1]: 3.92 µM
IC50 [5]: 5.28 µM
IC50 [12]: 1.81 µM
IC50 [28]: 1.03 µM
IC50 [35]: 2.26 µM
IC50 [36]: 4.18 µM
SMILES: C[C@@H]1O[C@@H](O[C@H]2[C@H](O[C@H]3CC[C@]4(C)[C@H]5CC=C6[C@@H]7CC(C)(C)CC[C@]7(C(=O)NCc7cn(-c8ccccc8Cl)nn7)CC[C@@]6(C)[C@]5(C)CC[C@H]4C3(C)C)OC[C@H](O[C@@H]3O[C@H](CO)[C@@H](O)[C@H](O)[C@H]3O)[C@@H]2O)[C@H](O)[C@H](O)[C@H]1O

IC50 [1]: 3.49 µM
IC50 [5]: 3.93 µM
IC50 [12]: 0.18 µM
IC50 [28]: 3.93 µM
IC50 [35]: 4.64 µM
IC50 [36]: 4.33 µM
SMILES: Cc1cccc(-n2cc(CNC(=O)[C@]34CCC(C)(C)C[C@H]3C3=CC[C@@H]5[C@@]6(C)CC[C@H](O[C@@H]7OC[C@H](O[C@@H]8O[C@H](CO)[C@@H](O)[C@H](O)[C@H]8O)[C@H](O)[C@H]7O[C@@H]7O[C@@H](C)[C@H](O)[C@@H](O)[C@H]7O)C(C)(C)[C@@H]6CC[C@@]5(C)[C@]3(C)CC4)nn2)c1

IC50 [1]: 12.4 µM
IC50 [5]: 49.6 µM
IC50 [12]: 10.5 µM
IC50 [28]: 11.3 µM
IC50 [35]: 14.3 µM
IC50 [36]: 35.6 µM
SMILES: CC(=O)c1ccccc1-n1cc(CNC(=O)[C@]23CCC(C)(C)C[C@H]2C2=CC[C@@H]4[C@@]5(C)CC[C@H](O[C@@H]6OC[C@H](O[C@@H]7O[C@H](CO)[C@@H](O)[C@H](O)[C@H]7O)[C@H](O)[C@H]6O[C@@H]6O[C@@H](C)[C@H](O)[C@@H](O)[C@H]6O)C(C)(C)[C@@H]5CC[C@@]4(C)[C@]2(C)CC3)nn1

IC50 [1]: 3.18 µM
IC50 [5]: 5.78 µM
IC50 [12]: 1.02 µM
IC50 [28]: 0.48 µM
IC50 [35]: 1.8 µM
IC50 [36]: 2.32 µM
SMILES: C[C@@H]1O[C@@H](O[C@H]2[C@H](O[C@H]3CC[C@]4(C)[C@H]5CC=C6[C@@H]7CC(C)(C)CC[C@]7(C(=O)NCc7cn(-c8ccc(F)cc8)nn7)CC[C@@]6(C)[C@]5(C)CC[C@H]4C3(C)C)OC[C@H](O[C@@H]3O[C@H](CO)[C@@H](O)[C@H](O)[C@H]3O)[C@@H]2O)[C@H](O)[C@H](O)[C@H]1O

IC50 [1]: 3.58 µM
IC50 [5]: 0.55 µM
IC50 [12]: 4.86 µM
IC50 [28]: 0.79 µM
IC50 [35]: 2.48 µM
IC50 [36]: 1.13 µM
SMILES: COc1ccc(-n2cc(CNC(=O)[C@]34CCC(C)(C)C[C@H]3C3=CC[C@@H]5[C@@]6(C)CC[C@H](O[C@@H]7OC[C@H](O[C@@H]8O[C@H](CO)[C@@H](O)[C@H](O)[C@H]8O)[C@H](O)[C@H]7O[C@@H]7O[C@@H](C)[C@H](O)[C@@H](O)[C@H]7O)C(C)(C)[C@@H]6CC[C@@]5(C)[C@]3(C)CC4)nn2)cc1
